Measurements taken from PubChem BioAssay (NCI).
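At the GI50, growth is halved. The concentration for full growth arrest is given as TGI.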

Key:
Assay in all cases: DTP human tumour cell line panel, 384-well format
[1] = tested on: NCI-H460 NSCLC
[2] = tested on: IGROV1 ovarian
[3] = tested on: SNB-75 CNS
[4] = tested on: TK-10 renal
[5] = tested on: UACC-257 melanoma
[6] = tested on: NCI-H23 lung
[7] = tested on: MDA-MB-435 melanoma
[8] = tested on: A498 renal
[9] = tested on: ACHN renal
[10] = tested on: CAKI-1 renal
[11] = tested on: CCRF-CEM leukemia
[12] = tested on: HOP-92 NSCLC
[13] = tested on: HS 578T breast
[14] = tested on: 786-0 renal
[15] = tested on: MDA-MB-468 breast
[16] = tested on: HT29 colon
[17] = tested on: RXF 393 renal
[18] = tested on: T-47D breast
[19] = tested on: SK-OV-3 ovarian
[20] = tested on: EKVX NSCLC
[21] = tested on: SF-295 CNS
[22] = tested on: M14 melanoma
[23] = tested on: SK-MEL-5 melanoma
[24] = tested on: MCF7 breast
[25] = tested on: COLO 205 colon
[26] = tested on: LOX IMVI melanoma
[27] = tested on: A549 NSCLC
[28] = tested on: SF-539 CNS
[29] = tested on: PC-3 prostate
[30] = tested on: OVCAR-3 ovarian
[31] = tested on: SNB-19 CNS
[32] = tested on: SF-268 CNS
[33] = tested on: HCC-2998 colon
[34] = tested on: MALME-3M melanoma
[35] = tested on: RPMI-8226 leukemia
[36] = tested on: SW-620 colon
[37] = tested on: U251 glioblastoma
[38] = tested on: HCT-116 colon
[39] = tested on: UO-31 renal
[40] = tested on: K-562 leukemia
[41] = tested on: SK-MEL-28 melanoma
[42] = tested on: NCI-H322M lung
[43] = tested on: UACC-62 melanoma
[44] = tested on: KM12 colon
[45] = tested on: HCT-15 colon
[46] = tested on: BT-549 breast
[47] = tested on: SN12C renal
[48] = tested on: NCI-H226 lung
[49] = tested on: MOLT-4 leukemia
[50] = tested on: NCI/ADR-RES ovarian
[51] = tested on: HOP-62 NSCLC
[52] = tested on: OVCAR-4 ovarian
[53] = tested on: SR leukemia
[54] = tested on: MDA-MB-231 breast
[55] = tested on: NCI-H522 lung
[56] = tested on: HL-60(TB) leukemia
[57] = tested on: OVCAR-5 ovarian
[58] = tested on: DU-145 prostate
[59] = tested on: OVCAR-8 ovarian

For `Nc1nc(Cl)nc2c1ncn2[C@@H]1O[C@H](COS(N)(=O)=O)[C@@H](O)[C@H]1O`, the TGI [1] was 0.032 µM, the GI50 [2] was 0.0205 µM and the TGI [2] was 0.0547 µM. For the same compound, the TGI [3] was 0.0199 µM, the TGI [4] was 0.036 µM and the GI50 [5] was 0.0201 µM. For the same compound, the TGI [5] was 0.0365 µM, the GI50 [6] was 0.0109 µM and the TGI [6] was 0.024 µM. The TGI [7] was 0.0167 µM, the GI50 [8] was 0.0198 µM and the TGI [8] was 0.0392 µM. It also gave a GI50 [9] of 0.0243 µM, a TGI [9] of 0.0575 µM and a GI50 [10] of 0.0157 µM. For the same compound, the TGI [10] was 0.0422 µM, the TGI [11] was 0.0105 µM and the GI50 [12] was 0.01 µM. The TGI [12] was 0.025 µM, the GI50 [13] was 0.0151 µM and the TGI [13] was 0.0294 µM. The GI50 [14] was 0.0173 µM, the TGI [14] was 0.0341 µM and the GI50 [15] was 0.0133 µM. For the same compound, the TGI [15] was 0.0265 µM, the GI50 [16] was 0.0184 µM and the TGI [16] was 0.0333 µM. The GI50 [17] was 0.0165 µM, the TGI [17] was 0.0319 µM and the TGI [18] was 0.0507 µM. For the same compound, the GI50 [19] was 0.0124 µM, the TGI [19] was 0.0441 µM and the GI50 [20] was 0.0223 µM. It also gave a TGI [20] of 0.0495 µM, a GI50 [21] of 0.0214 µM and a TGI [21] of 0.0483 µM. It also gave a GI50 [22] of 0.0166 µM, a TGI [22] of 0.0304 µM and a GI50 [23] of 0.0159 µM. For the same compound, the TGI [23] was 0.0296 µM, the TGI [24] was 0.0697 µM and the GI50 [25] was 0.0182 µM. It also gave a TGI [25] of 0.038 µM, a GI50 [26] of 0.0173 µM and a TGI [26] of 0.0316 µM. The GI50 [27] was 0.0156 µM, the TGI [27] was 0.044 µM and the GI50 [28] was 0.015 µM. It also gave a TGI [28] of 0.0286 µM, a GI50 [29] of 0.0123 µM and a TGI [29] of 0.0336 µM. It also gave a GI50 [30] of 0.0209 µM, a TGI [30] of 0.0415 µM and a TGI [31] of 0.0136 µM. It also gave a TGI [32] of 0.0114 µM, a GI50 [33] of 0.0146 µM and a TGI [33] of 0.0289 µM. It also gave a GI50 [34] of 0.0111 µM, a TGI [34] of 0.0233 µM and a TGI [35] of 0.0118 µM. It also gave a TGI [36] of 0.0428 µM, a GI50 [37] of 0.0143 µM and a TGI [37] of 0.0342 µM. It also gave a TGI [38] of 0.0409 µM, a GI50 [39] of 0.0194 µM and a TGI [39] of 0.0358 µM. For the same compound, the TGI [40] was 0.014 µM, the GI50 [41] was 0.0138 µM and the TGI [41] was 0.0271 µM. For the same compound, the TGI [42] was 0.0274 µM, the GI50 [43] was 0.0164 µM and the TGI [43] was 0.0303 µM. The TGI [44] was 0.0151 µM, the GI50 [45] was 0.0207 µM and the TGI [45] was 0.0451 µM.
With `Cn1ncnc1C1c2n[nH]c(=O)c3cc(F)cc(c23)NC1c1ccc(F)cc1` (stereo not drawn) the GI50 [1] was 0.0191 µM, the TGI [1] was 1.56 µM and the GI50 [2] was greater than 100 µM. It also gave a TGI [2] greater than 100 µM, a GI50 [3] of 5.52 µM and a TGI [3] greater than 100 µM. For the same compound, the GI50 [4] was greater than 100 µM, the TGI [4] was greater than 100 µM and the GI50 [5] was greater than 100 µM. For the same compound, the TGI [5] was greater than 100 µM, the GI50 [6] was 1.89 µM and the TGI [6] was greater than 100 µM. The GI50 [7] was greater than 100 µM, the TGI [7] was greater than 100 µM and the GI50 [8] was 24.8 µM. For the same compound, the TGI [8] was greater than 100 µM, the GI50 [9] was 43.6 µM and the TGI [9] was greater than 100 µM. The GI50 [10] was greater than 100 µM, the TGI [10] was greater than 100 µM and the GI50 [12] was greater than 100 µM. For the same compound, the TGI [12] was greater than 100 µM, the GI50 [46] was 4.68 µM and the TGI [46] was greater than 100 µM. For the same compound, the GI50 [13] was greater than 100 µM, the TGI [13] was greater than 100 µM and the GI50 [47] was 1.53 µM. The TGI [47] was greater than 100 µM, the GI50 [48] was greater than 100 µM and the TGI [48] was greater than 100 µM. For the same compound, the GI50 [15] was 0.677 µM, the TGI [15] was 4.68 µM and the GI50 [16] was greater than 100 µM. For the same compound, the TGI [16] was greater than 100 µM, the GI50 [49] was 0.234 µM and the TGI [49] was 1.06 µM. The GI50 [17] was greater than 100 µM, the TGI [17] was greater than 100 µM and the GI50 [18] was greater than 100 µM. For the same compound, the TGI [18] was greater than 100 µM, the GI50 [19] was 2.3 µM and the TGI [19] was greater than 100 µM. It also gave a GI50 [20] greater than 100 µM, a TGI [20] greater than 100 µM and a GI50 [21] of 0.383 µM. It also gave a TGI [21] of 8.07 µM, a GI50 [50] of 8.17 µM and a TGI [50] greater than 100 µM. It also gave a GI50 [23] greater than 100 µM, a TGI [23] greater than 100 µM and a GI50 [51] of 0.278 µM. For the same compound, the TGI [51] was 4.14 µM, the GI50 [24] was 3.63 µM and the TGI [24] was greater than 100 µM. The GI50 [52] was 19 µM, the TGI [52] was greater than 100 µM and the GI50 [25] was 1.85 µM. For the same compound, the TGI [25] was greater than 100 µM, the GI50 [26] was 2.43 µM and the TGI [26] was greater than 100 µM. It also gave a GI50 [27] greater than 100 µM, a TGI [27] greater than 100 µM and a GI50 [28] of 1.81 µM. The TGI [28] was greater than 100 µM, the GI50 [29] was greater than 100 µM and the TGI [29] was greater than 100 µM. For the same compound, the TGI [53] was 0.0215 µM, the GI50 [30] was 82.7 µM and the TGI [30] was greater than 100 µM. It also gave a GI50 [31] of 5.2 µM, a TGI [31] greater than 100 µM and a GI50 [32] of 1.73 µM. For the same compound, the TGI [32] was greater than 100 µM, the GI50 [54] was greater than 100 µM and the TGI [54] was greater than 100 µM. The GI50 [34] was greater than 100 µM, the TGI [34] was greater than 100 µM and the GI50 [55] was greater than 100 µM. The TGI [55] was greater than 100 µM, the GI50 [35] was 1.65 µM and the TGI [35] was greater than 100 µM. It also gave a GI50 [37] of 3.46 µM, a TGI [37] greater than 100 µM and a GI50 [38] of 0.857 µM. The TGI [38] was greater than 100 µM, the GI50 [56] was 1.2 µM and the TGI [56] was 2.56 µM. The GI50 [57] was greater than 100 µM, the TGI [57] was greater than 100 µM and the GI50 [58] was 2.2 µM. It also gave a TGI [58] of 14.4 µM, a GI50 [41] greater than 100 µM and a TGI [41] greater than 100 µM. The GI50 [42] was greater than 100 µM, the TGI [42] was greater than 100 µM and the GI50 [43] was greater than 100 µM. For the same compound, the TGI [43] was greater than 100 µM, the GI50 [44] was greater than 100 µM and the TGI [44] was greater than 100 µM. The GI50 [59] was 2.15 µM, the TGI [59] was greater than 100 µM and the GI50 [45] was 32.5 µM. It also gave a TGI [45] greater than 100 µM.
